The text below walks through data of patent US20130029962A1, “Substituted Heteroaromatic Pyrazole-Containing Carboxamide and Urea Compounds as Vanilloid Receptor Ligands” (Gruenenthal GmbH, priority 2011, published 2013).

Each structure is given as a SMILES string.

T1 sequence (Q8NER1 whole entry): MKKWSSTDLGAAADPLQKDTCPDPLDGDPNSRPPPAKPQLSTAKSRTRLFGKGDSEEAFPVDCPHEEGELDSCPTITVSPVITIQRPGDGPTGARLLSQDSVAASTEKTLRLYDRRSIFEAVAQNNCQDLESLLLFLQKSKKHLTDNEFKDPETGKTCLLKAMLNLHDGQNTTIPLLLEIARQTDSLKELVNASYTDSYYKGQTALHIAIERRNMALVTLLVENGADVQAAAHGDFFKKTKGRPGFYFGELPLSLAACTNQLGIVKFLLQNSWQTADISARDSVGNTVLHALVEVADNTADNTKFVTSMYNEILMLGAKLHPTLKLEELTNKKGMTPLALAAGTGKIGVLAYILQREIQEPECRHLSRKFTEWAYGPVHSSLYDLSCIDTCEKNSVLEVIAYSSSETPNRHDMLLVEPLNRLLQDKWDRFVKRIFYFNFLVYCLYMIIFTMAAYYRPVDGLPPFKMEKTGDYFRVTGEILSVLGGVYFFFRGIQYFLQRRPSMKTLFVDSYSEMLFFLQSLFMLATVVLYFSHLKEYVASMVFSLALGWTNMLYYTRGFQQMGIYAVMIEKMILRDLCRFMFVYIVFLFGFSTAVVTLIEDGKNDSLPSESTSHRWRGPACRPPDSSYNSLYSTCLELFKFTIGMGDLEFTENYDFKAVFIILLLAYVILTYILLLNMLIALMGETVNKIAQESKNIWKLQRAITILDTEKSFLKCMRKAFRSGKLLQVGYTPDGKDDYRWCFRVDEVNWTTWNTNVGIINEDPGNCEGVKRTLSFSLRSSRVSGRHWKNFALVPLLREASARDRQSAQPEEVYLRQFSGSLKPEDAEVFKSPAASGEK

The first test has as its target T1, vanilloid receptor 1 (VR1/TRPV1 receptor) (Homo sapiens, UniProt Q8NER1).
T1 construct: expressed in transfected cells; host or cells: CHO K1
Put plainly: Functional testing on the vanilloid receptor 1 (VR1/TRPV1): FLIPR Ca2+ influx assay, displacement of capsaicin. It is filed as cell-based, human being. Also on record: key to mode of action at VR1/TRPV1 (AG, pAG, NE), Cap: AG=agonist; NE=no effect; pAG=partial agonist. As to conditions: 5 μM compound; capsaicin (Cap); human being; read-out: inhibition (as a percentage) at the concentration after @, Cap. The method, then:
Furthermore, preference may be given to compounds according to the invention that cause a 50 percent displacement of capsaicin, which is present at a concentration of 100 nM, in a FLIPR assay with CHO K1 cells which were transfected with the human VR1 gene at a concentration of less than 2,000 nM, preferably less than 1,000 nM, particularly preferably less than 300 nM, most particularly preferably less than 100 nM, even more preferably less than 75 nM, additionally preferably less than 50 nM, most preferably less than 10 nM.
In the process, the Ca^2+ influx is quantified in the FLIPR assay with the aid of a Ca^2+-sensitive dye (type Fluo-4, Molecular Probes Europe BV, Leiden, the Netherlands) in a fluorescent imaging plate reader (FLIPR, Molecular Devices, Sunnyvale, USA), as described hereinafter. […]
The number of cells in the suspension is set to 3×10^5 per mL and 150 μL of this suspension are in each case introduced into a recess in the cell culture plates coated as described hereinbefore. In the incubator the plates are left for two to three days at 37° C., 5% by volume of CO2 and 95% relative humidity. Subsequently, the cells are loaded with 2 μM of Fluo-4 and 0.01% by volume of Pluronic F127 (Molecular Probes Europe BV, Leiden, the Netherlands) in HBSS buffer (Hank's buffered saline solution, Gibco Invitrogen GmbH, Karlsruhe, Germany) for 30 min at 37° C., washed 3 times with HBSS buffer and after further incubation for 15 minutes at room temperature used for Ca^2+ measurement in a FLIPR assay. The Ca^2+-dependent fluorescence is in this case measured before and after the addition of substances (λex=488 nm, λem=540 nm). Quantification is carried out by measuring the highest fluorescence intensity (FC, fluorescence counts) over time.
The FLIPR protocol consists of 2 substance additions. First the compounds to be tested (10 μM) are pipetted onto the cells and the Ca^2+ influx is compared with the control (capsaicin 10 μM). This provides the result in % activation based on the Ca^2+ signal after the addition of 10 μM of capsaicin (CP). After 5 minutes' incubation, 100 nM of capsaicin are applied and the Ca^2+ influx is also determined. Desensitising agonists and antagonists lead to suppression of the Ca^2+ influx. The % inhibition is calculated compared to the maximum achievable inhibition with 10 μM of capsazepine. Triple analyses (n=3) are carried out and repeated in at least 3 independent experiments (N=4).
Starting from the percentage displacement caused by different concentrations of the compounds to be tested of general formula I, IC50 inhibitory concentrations which cause a 50-percent displacement of capsaicin were calculated. Ki values for the test substances were obtained by conversion by means of the Cheng-Prusoff equation (Cheng, Prusoff; Biochem. Pharmacol. 22, 3099-3108, 1973).
The affinity of the compounds according to the invention for the vanilloid receptor 1 (VR1/TRPV1 receptor) was determined as described above (pharmacological method I).
As to `COCCNc1ccc(NC(=O)NCc2cc(C(C)(C)C)nn2-c2cccc(Cl)c2)cn1` [Example 68, 1-((3-tert-butyl-1-(3-chlorophenyl)-1H-pyrazol-5-yl)methyl)-3-(6-(2-methoxyethylamino)pyridin-3-yl)urea], the inhibition at 5 µM came out at 73%. As for `COCCN(C)c1ccc(C(C)C(=O)NCc2cc(C(F)(F)F)nn2-c2cccc(Cl)c2)cn1` (centres unmarked) [Example 88, N-((1-(3-chlorophenyl)-3-(trifluoromethyl)-1H-pyrazol-5-yl)methyl)-2-(6-((2-methoxyethyl)(methyl)amino)pyridin-3-yl)propanamide], the inhibition at 5 µM turned out to be 55%. As for `COCCN(C)c1ccc(NC(=O)NCc2cc(C(F)(F)F)nn2-c2cccc(Cl)c2)cn1` [Example 89, 1-((1-(3-chlorophenyl)-3-(trifluoromethyl)-1H-pyrazol-5-yl)methyl)-3-(6-((2-methoxyethyl)(methyl)amino)pyridin-3-yl)urea], the inhibition at 5 µM amounted to 31%. Same read-out and setting: under `CC(C(=O)NCc1cc(C(C)(C)C)nn1-c1cccc(Cl)c1)c1ccc(NC(=O)c2ccccc2)nc1` (centres unmarked) [Example 91, N-(5-(1-((3-tert-butyl-1-(3-chlorophenyl)-1H-pyrazol-5-yl)methylamino)-1-oxopropan-2-yl)pyridin-2-yl)benzamide] stands 98%; under `CS(=O)(=O)Nc1ccc(NC(=O)NCc2cc(C(F)(F)F)nn2-c2cccc(Cl)c2)cn1` [Example 101, N-(5-(3-((1-(3-chlorophenyl)-3-(trifluoromethyl)-1H-pyrazol-5-yl)methyl)ureido)pyridin-2-yl)methanesulfonamide], 30%.

Still in this test, the particulars now being: capsaicin (Cap) as stimulus; Ki from IC50 by Cheng-Prusoff; read-out: (f) Ki (human being) [nM] Cap.
As usually defined, the Ki is a measure of affinity in units of concentration, obtained from inhibition or displacement. Turning to `CC(C(=O)NCc1cc(C(C)(C)C)nn1-c1cccc(Cl)c1)c1cnc(C(=O)Nc2ccc(F)cc2)nc1` (centres unmarked) [Example 66, 5-(1-((3-tert-butyl-1-(3-chlorophenyl)-1H-pyrazol-5-yl)methylamino)-1-oxopropan-2-yl)-N-(4-fluorophenyl)pyrimidine-2-carboxamide], the Ki was 3 nM. As to `CC(C(=O)NCc1cc(C(C)(C)C)nn1-c1cccc(Cl)c1)c1cnc(C(=O)Nc2ccc(C(F)(F)F)cc2)nc1` (centres unmarked) [Example 67, 5-(1-((3-tert-butyl-1-(3-chlorophenyl)-1H-pyrazol-5-yl)methylamino)-1-oxopropan-2-yl)-N-(4-(trifluoromethyl)phenyl)pyrimidine-2-carboxamide], the Ki is 13 nM. Turning to `COCCNc1ccc(NC(=O)NCc2cc(C(F)(F)F)nn2-c2cccc(Cl)c2)cn1` [Example 69, 1-((1-(3-chlorophenyl)-3-(trifluoromethyl)-1H-pyrazol-5-yl)methyl)-3-(6-(2-methoxyethylamino)pyridin-3-yl)urea], the Ki was 51 nM. Same read-out and setting: then `CC(C)(C)c1cc(CNC(=O)Nc2ccc(NCCO)nc2)n(-c2cccc(Cl)c2)n1` [Example 70, 1-((3-tert-butyl-1-(3-chlorophenyl)-1H-pyrazol-5-yl)methyl)-3-(6-(2-hydroxyethylamino)pyridin-3-yl)urea], with 3 nM; and `O=C(NCc1cc(C(F)(F)F)nn1-c1cccc(Cl)c1)Nc1ccc(NCCO)nc1` [Example 71, 1-((1-(3-chlorophenyl)-3-(trifluoromethyl)-1H-pyrazol-5-yl)methyl)-3-(6-(2-hydroxyethylamino)pyridin-3-yl)urea], with 8 nM.

With `O=C(NCc1cc(C2CC2)nn1-c1cccc(Cl)c1)Nc1ccc(NCCO)nc1` [Example 72, 1-((1-(3-chlorophenyl)-3-cyclopropyl-1H-pyrazol-5-yl)methyl)-3-(6-(2-hydroxyethylamino)pyridin-3-yl)urea], the Ki worked out at 17 nM.

For the compound `O=C(NCc1cc(C(F)(F)F)nn1-c1ccc(F)c(F)c1)Nc1ccc(NCCO)nc1` [Example 79, 1-((1-(3,4-difluorophenyl)-3-(trifluoromethyl)-1H-pyrazol-5-yl)methyl)-3-(6-(2-hydroxyethylamino)pyridin-3-yl)urea], the Ki was 26 nM. `Cc1cccc(-n2nc(C(F)(F)F)cc2CNC(=O)Nc2ccc(NCCO)nc2)c1` [Example 81, 1-(6-(2-hydroxyethylamino)pyridin-3-yl)-3-((1-m-tolyl-3-(trifluoromethyl)-1H-pyrazol-5-yl)methyl)urea]: the Ki came to 12 nM. Consider `CN(CCO)c1ccc(NC(=O)NCc2cc(C(C)(C)C)nn2-c2cccc(Cl)c2)cn1` [Example 87, 1-((3-tert-butyl-1-(3-chlorophenyl)-1H-pyrazol-5-yl)methyl)-3-(6-((2-hydroxyethyl)(methyl)amino)pyridin-3-yl)urea], for which the Ki was found to be 17 nM. Consider `CN(CCO)c1ccc(NC(=O)NCc2cc(C(F)(F)F)nn2-c2cccc(Cl)c2)cn1` [Example 90, 1-((1-(3-chlorophenyl)-3-(trifluoromethyl)-1H-pyrazol-5-yl)methyl)-3-(6-((2-hydroxyethyl)(methyl)amino)pyridin-3-yl)urea], for which the Ki stood at 44 nM.

As to `CC(C(=O)NCc1cc(C(F)(F)F)nn1-c1cccc(Cl)c1)c1ccc(NC(=O)c2ccccc2)nc1` (centres unmarked) [Example 92, N-(5-(1-((1-(3-chlorophenyl)-3-(trifluoromethyl)-1H-pyrazol-5-yl)methylamino)-1-oxopropan-2-yl)pyridin-2-yl)benzamide], the Ki stood at 26 nM. Turning to `CC(C(=O)NCc1cc(C(C)(C)C)nn1-c1cccc(Cl)c1)c1ccc(NC(=O)c2ccc(F)cc2)nc1` (centres unmarked) [Example 93, N-(5-(1-((3-tert-butyl-1-(3-chlorophenyl)-1H-pyrazol-5-yl)methylamino)-1-oxopropan-2-yl)pyridin-2-yl)-4-fluorobenzamide], the Ki was 2 nM. As for `CC(C(=O)NCc1cc(C(F)(F)F)nn1-c1cccc(Cl)c1)c1ccc(NC(=O)c2ccc(F)cc2)nc1` (centres unmarked) [Example 94, N-(5-(1-((1-(3-chlorophenyl)-3-(trifluoromethyl)-1H-pyrazol-5-yl)methylamino)-1-oxopropan-2-yl)pyridin-2-yl)-4-fluorobenzamide], the Ki amounted to 4 nM. Still for that read-out and setting: under `CC(C(=O)NCc1cc(C(C)(C)C)nn1-c1cccc(Cl)c1)c1ccc(NC(=O)c2ccc(Cl)cc2)nc1` (centres unmarked) [Example 95, N-(5-(1-((3-tert-butyl-1-(3-chlorophenyl)-1H-pyrazol-5-yl)methylamino)-1-oxopropan-2-yl)pyridin-2-yl)-4-chlorobenzamide] stands 2 nM; under `CC(C(=O)NCc1cc(C(F)(F)F)nn1-c1cccc(Cl)c1)c1ccc(NC(=O)c2ccc(Cl)cc2)nc1` (centres unmarked) [Example 96, 4-chloro-N-(5-(1-((1-(3-chlorophenyl)-3-(trifluoromethyl)-1H-pyrazol-5-yl)methylamino)-1-oxopropan-2-yl)pyridin-2-yl)benzamide], 3 nM; under `CC(C(=O)NCc1cc(C(C)(C)C)nn1-c1cccc(Cl)c1)c1ccc(NS(C)(=O)=O)nc1` (centres unmarked) [Example 98, N-((3-tert-butyl-1-(3-chlorophenyl)-1H-pyrazol-5-yl)methyl)-2-(6-(methylsulfonamido)pyridin-3-yl)propanamide], 8 nM. Turning to `CC(C(=O)NCc1cc(C(F)(F)F)nn1-c1cccc(Cl)c1)c1ccc(NS(C)(=O)=O)nc1` (centres unmarked) [Example 99, N-((1-(3-chlorophenyl)-3-(trifluoromethyl)-1H-pyrazol-5-yl)methyl)-2-(6-(methylsulfonamido)pyridin-3-yl)propanamide], the Ki came out at 11 nM. As for `CC(C(=O)NCc1cc(C(F)(F)F)nn1-c1cccc(F)c1)c1ccc(NS(C)(=O)=O)nc1` (centres unmarked) [Example 100, N-((1-(3-fluorophenyl)-3-(trifluoromethyl)-1H-pyrazol-5-yl)methyl)-2-(6-(methylsulfonamido)pyridin-3-yl)propanamide], the Ki worked out at 37 nM. Consider `CC(C(=O)NCc1cc(C(C)(C)C)nn1-c1cccc(Cl)c1)c1cnc(NS(C)(=O)=O)c(F)c1` (centres unmarked) [Example 102, N-((3-tert-butyl-1-(3-chlorophenyl)-1H-pyrazol-5-yl)methyl)-2-(5-fluoro-6-(methylsulfonamido)pyridin-3-yl)propanamide], for which the Ki was found to be 8 nM.

Staying with this test, now noted: capsaicin (Cap); human being.
As for `COCCNc1ccc(NC(=O)NCc2cc(C(C)(C)C)nn2-c2cccc(Cl)c2)cn1` [Example 68, 1-((3-tert-butyl-1-(3-chlorophenyl)-1H-pyrazol-5-yl)methyl)-3-(6-(2-methoxyethylamino)pyridin-3-yl)urea], the “mode of action at VR1/TRPV1 (AG, pAG, NE), Cap” value is “AG”. Take `CC(C(=O)NCc1cc(C(C)(C)C)nn1-c1cccc(Cl)c1)c1ccc(NC(=O)c2ccccc2)nc1` (centres unmarked) [Example 91, N-(5-(1-((3-tert-butyl-1-(3-chlorophenyl)-1H-pyrazol-5-yl)methylamino)-1-oxopropan-2-yl)pyridin-2-yl)benzamide]: the “mode of action at VR1/TRPV1 (AG, pAG, NE), Cap” value is listed as “AG”.
